{"source": "ChEMBL document CHEMBL1201862", "about": "“PubChem BioAssay data set” (2004)", "key": {"[1]": {"target": "Dual specificity tyrosine-phosphorylation-regulated kinase 1A (Rattus norvegicus, UniProt Q63470)", "format": "biochemical, Homo sapiens"}, "[2]": {"target": "T1, Polyadenylate-binding protein 1 (Homo sapiens, UniProt P11940)", "T1 sequence (P11940 whole entry)": "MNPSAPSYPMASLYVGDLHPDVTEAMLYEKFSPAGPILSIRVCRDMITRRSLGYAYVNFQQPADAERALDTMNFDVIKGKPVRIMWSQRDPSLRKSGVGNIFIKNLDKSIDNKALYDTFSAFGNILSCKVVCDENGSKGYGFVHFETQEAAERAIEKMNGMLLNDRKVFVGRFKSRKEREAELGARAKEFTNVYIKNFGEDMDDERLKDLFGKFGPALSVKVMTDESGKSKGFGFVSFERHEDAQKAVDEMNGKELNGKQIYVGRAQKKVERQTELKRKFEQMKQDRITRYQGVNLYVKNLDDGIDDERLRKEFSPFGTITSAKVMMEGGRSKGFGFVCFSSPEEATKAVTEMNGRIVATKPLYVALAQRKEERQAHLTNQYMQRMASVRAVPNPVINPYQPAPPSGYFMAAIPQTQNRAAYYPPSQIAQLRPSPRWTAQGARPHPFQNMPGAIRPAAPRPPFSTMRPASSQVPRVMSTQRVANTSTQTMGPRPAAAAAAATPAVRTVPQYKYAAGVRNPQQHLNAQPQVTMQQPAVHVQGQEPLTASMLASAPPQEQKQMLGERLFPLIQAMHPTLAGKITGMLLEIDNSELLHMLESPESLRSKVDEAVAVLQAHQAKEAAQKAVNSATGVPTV", "test": "PABP1 MLLE–PAM2 interaction inhibitors, dose response, miRNA deadenylation inhibitor project, biochemical, fluorescence polarization, Cy5-PAM2 peptide, secondary (AID 602260)", "format": "functional", "details": "read-out: IC50_Mean"}, "[3]": {"target": "T1, Polyadenylate-binding protein 1", "test": "PABP1 MLLE–PAM2 binding inhibitor potency, dose response, biochemical, fluorescence polarization, FITC-PAM2 peptide (AID 602259)", "format": "functional", "details": "read-out: IC50_Mean"}, "[4]": {"tested_on": "Vero", "test": "Vero cell cytotoxicity, cytotoxicity control for flavivirus capping enzyme inhibitors (AID 588742)", "format": "functional", "details": "Chlorocebus sabaeus"}, "[5]": {"test": "cells"}, "[6]": {"tested_on": "Vero", "test": "cells", "format": "functional, cell-based", "details": "Chlorocebus sabaeus"}, "[7]": {"target": "T2, Cytochrome P450 1A2 (Homo sapiens, UniProt P05177)", "T2 sequence (P05177 whole entry)": "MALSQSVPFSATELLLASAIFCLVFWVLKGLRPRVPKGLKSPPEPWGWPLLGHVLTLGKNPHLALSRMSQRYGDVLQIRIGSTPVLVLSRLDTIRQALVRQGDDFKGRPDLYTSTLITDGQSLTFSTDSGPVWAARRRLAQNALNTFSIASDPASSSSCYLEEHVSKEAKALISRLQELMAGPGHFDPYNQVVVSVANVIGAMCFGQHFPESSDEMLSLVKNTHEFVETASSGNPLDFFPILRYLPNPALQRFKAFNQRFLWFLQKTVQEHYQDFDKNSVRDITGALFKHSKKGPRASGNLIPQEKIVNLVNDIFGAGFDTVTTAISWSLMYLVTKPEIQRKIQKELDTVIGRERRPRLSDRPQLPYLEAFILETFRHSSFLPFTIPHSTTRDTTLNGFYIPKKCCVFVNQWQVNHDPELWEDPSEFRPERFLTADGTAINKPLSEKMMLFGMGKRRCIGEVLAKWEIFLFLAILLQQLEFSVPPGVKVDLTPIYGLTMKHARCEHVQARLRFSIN"}, "[8]": {"target": "Cytochrome P450 2C19 (Homo sapiens, UniProt P33261)", "test": "Cytochrome panel assay with activity outcomes. Panel member name: p450-cyp2c19 Compounds with AC50 equal or less than 10 uM are considered active", "format": "functional", "details": "read-out: AC50"}, "[9]": {"target": "Cytochrome P450 2D6 (Homo sapiens, UniProt P10635)"}, "[10]": {"tested_on": "Vero", "test": "cells", "format": "functional", "details": "Chlorocebus sabaeus"}, "[11]": {"target": "Aurora kinase B (Homo sapiens, UniProt Q96GD4)", "sequence (Q96GD4 whole entry)": "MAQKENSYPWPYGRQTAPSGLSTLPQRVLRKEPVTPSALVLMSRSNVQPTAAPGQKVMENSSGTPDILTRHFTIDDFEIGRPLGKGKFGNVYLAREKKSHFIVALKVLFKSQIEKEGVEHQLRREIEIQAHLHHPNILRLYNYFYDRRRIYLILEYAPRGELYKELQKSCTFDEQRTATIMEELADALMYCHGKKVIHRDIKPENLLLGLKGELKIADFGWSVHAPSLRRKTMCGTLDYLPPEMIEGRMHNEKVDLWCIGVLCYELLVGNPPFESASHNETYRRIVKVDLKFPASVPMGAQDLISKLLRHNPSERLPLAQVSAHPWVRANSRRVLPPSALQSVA", "format": "functional"}, "[12]": {"target": "T3, Aurora kinase A (Homo sapiens, UniProt O14965)", "T3 sequence (O14965 whole entry)": "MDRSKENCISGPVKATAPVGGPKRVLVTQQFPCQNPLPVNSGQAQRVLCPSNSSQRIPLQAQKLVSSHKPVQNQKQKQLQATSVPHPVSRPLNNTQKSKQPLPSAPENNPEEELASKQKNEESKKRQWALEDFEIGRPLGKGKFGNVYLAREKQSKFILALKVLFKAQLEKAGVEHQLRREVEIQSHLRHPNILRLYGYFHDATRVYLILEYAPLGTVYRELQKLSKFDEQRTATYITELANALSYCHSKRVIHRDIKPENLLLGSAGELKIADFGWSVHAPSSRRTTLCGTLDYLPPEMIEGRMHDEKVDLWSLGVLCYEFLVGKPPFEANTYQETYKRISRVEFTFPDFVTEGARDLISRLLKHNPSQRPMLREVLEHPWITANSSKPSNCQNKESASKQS", "format": "functional"}, "[13]": {"target": "Vascular endothelial growth factor receptor 2 (Homo sapiens, UniProt P35968)", "sequence (P35968 whole entry)": "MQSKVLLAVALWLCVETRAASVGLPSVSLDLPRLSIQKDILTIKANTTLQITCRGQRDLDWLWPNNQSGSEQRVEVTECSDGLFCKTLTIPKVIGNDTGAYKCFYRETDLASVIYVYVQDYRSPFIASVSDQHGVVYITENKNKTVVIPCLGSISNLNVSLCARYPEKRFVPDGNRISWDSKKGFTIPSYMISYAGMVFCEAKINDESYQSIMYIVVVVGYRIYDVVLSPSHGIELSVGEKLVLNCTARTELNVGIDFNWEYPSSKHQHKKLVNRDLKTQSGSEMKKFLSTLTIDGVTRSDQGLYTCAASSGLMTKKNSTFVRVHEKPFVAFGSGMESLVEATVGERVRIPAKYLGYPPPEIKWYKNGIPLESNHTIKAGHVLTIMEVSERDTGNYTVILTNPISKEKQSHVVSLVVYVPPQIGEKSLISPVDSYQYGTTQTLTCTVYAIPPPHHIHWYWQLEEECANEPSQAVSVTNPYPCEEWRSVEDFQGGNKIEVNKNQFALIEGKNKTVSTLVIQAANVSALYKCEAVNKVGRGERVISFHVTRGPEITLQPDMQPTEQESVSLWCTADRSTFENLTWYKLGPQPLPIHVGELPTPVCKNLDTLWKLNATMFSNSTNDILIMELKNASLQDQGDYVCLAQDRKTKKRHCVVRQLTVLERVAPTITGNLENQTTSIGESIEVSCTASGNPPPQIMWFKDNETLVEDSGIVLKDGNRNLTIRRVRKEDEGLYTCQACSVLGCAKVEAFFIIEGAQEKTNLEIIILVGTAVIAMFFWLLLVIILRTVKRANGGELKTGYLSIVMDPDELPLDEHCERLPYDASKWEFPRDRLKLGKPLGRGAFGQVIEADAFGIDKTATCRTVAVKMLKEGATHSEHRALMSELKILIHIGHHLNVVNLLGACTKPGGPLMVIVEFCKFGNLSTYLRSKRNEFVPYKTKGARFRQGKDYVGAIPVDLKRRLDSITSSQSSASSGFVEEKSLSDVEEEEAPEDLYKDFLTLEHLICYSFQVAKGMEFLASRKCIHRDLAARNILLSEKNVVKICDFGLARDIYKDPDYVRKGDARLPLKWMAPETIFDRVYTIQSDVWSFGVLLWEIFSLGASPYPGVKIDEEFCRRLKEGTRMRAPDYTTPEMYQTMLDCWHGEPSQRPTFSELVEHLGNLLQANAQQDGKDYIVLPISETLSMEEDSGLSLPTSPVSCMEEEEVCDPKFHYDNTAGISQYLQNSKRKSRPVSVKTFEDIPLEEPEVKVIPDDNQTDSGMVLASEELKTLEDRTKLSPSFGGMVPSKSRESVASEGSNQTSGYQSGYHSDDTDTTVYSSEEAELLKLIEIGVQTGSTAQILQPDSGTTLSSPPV", "format": "functional"}, "[14]": {"target": "T4, Fatty acid synthase (Homo sapiens, UniProt P49327)", "T4 sequence (P49327 whole entry, the tested form may be a part)": "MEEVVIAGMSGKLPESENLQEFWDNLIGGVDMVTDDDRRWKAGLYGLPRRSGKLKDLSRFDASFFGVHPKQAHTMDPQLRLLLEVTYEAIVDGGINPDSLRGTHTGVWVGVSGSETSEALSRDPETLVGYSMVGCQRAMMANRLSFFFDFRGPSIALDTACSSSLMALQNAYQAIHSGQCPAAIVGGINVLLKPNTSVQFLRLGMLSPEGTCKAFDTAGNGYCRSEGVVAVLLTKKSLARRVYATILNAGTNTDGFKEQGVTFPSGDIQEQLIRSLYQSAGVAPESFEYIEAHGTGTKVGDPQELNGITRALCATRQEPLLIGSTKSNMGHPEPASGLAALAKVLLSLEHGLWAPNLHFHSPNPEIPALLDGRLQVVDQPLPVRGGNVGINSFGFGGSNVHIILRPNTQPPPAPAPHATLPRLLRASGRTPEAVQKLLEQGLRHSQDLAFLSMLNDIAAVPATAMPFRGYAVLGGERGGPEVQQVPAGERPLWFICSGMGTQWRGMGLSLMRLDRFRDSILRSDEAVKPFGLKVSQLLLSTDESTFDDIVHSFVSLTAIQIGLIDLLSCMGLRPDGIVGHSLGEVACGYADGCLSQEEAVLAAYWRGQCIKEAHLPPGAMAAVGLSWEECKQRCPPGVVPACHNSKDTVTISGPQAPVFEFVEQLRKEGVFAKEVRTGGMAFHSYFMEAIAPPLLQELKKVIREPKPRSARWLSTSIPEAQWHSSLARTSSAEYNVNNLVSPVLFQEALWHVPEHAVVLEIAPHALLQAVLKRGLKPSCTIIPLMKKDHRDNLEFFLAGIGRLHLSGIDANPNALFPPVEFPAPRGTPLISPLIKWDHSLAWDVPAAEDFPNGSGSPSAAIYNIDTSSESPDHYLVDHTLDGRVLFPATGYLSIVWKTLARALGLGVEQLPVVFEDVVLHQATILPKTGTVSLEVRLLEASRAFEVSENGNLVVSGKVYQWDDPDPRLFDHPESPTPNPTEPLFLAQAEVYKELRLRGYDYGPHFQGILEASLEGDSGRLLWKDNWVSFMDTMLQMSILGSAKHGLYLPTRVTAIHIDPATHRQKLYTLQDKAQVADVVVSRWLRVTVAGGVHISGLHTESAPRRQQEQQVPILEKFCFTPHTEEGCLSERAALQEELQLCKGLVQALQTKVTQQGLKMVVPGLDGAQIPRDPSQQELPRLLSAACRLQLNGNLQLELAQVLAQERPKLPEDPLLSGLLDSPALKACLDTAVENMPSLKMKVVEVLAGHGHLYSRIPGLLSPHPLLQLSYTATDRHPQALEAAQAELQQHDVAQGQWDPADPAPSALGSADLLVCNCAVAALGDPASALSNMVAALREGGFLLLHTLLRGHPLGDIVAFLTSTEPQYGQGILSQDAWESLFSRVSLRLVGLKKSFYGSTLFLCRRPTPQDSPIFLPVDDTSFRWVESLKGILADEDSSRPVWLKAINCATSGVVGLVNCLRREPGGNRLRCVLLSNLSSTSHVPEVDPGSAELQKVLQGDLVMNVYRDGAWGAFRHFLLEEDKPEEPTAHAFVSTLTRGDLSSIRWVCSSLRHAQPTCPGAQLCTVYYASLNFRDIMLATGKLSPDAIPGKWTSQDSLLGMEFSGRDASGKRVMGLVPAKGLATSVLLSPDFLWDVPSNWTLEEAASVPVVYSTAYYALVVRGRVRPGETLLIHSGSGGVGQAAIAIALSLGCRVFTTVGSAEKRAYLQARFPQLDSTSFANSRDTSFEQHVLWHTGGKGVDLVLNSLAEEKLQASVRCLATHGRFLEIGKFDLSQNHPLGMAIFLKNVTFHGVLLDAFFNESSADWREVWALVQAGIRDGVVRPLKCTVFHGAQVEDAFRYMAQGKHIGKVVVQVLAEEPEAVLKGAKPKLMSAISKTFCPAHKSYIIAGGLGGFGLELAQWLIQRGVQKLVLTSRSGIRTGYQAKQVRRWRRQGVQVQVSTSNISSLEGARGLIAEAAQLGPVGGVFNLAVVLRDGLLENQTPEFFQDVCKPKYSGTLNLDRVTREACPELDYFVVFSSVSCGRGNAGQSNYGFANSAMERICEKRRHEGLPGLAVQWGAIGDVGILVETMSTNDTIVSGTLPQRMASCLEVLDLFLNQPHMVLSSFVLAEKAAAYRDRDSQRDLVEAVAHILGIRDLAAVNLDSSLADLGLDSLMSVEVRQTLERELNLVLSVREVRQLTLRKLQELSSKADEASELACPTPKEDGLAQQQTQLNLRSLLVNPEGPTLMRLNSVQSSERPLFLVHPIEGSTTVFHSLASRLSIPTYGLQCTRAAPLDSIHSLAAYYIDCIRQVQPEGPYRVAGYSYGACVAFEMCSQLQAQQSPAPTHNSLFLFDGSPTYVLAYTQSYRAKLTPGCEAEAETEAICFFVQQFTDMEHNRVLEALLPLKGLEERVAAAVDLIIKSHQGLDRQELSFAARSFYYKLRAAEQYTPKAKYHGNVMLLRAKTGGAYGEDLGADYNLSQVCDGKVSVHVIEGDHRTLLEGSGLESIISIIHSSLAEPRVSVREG", "test": "FAS thioesterase domain inhibitors, dose response, biochemical, endpoint fluorescence intensity, uHTS hits (AID 624327);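 also: fluorescence from hydrolysis of an O-methyl fluorescein acyl ester substrate by the enzyme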", "format": "functional"}, "[15]": {"target": "Induced myeloid leukemia cell differentiation protein Mcl-1 (Homo sapiens, UniProt Q07820)", "format": "functional"}, "[16]": {"target": "T5, Streptokinase A (Streptococcus pyogenes serotype M1, UniProt P10520)", "T5 sequence (P10520 whole entry)": "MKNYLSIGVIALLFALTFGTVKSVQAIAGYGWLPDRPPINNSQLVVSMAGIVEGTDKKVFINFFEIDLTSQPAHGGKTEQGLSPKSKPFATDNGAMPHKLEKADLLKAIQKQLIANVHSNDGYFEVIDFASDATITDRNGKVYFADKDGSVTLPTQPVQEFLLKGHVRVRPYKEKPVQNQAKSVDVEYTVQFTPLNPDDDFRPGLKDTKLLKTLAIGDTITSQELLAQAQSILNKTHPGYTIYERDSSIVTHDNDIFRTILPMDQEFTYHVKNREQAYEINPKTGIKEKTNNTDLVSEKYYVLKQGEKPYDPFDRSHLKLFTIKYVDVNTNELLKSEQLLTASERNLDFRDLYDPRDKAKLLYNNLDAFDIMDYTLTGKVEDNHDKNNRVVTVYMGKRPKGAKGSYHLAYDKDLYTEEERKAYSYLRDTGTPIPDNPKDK", "test": "S. pyogenes streptokinase expression inhibitors, potency, dose response, plasminogen activation absorbance, OD405 (AID 1914);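 also: secreted streptokinase activity via plasminogen activation per viability signal from cell pellet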", "format": "functional, Streptococcus pyogenes M1 GAS"}, "[17]": {"target": "T4, Fatty acid synthase", "test": "FAS thioesterase domain inhibitors, dose response, biochemical, kinetic fluorescence intensity (AID 624326);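 also: rate of fluorescence rise from hydrolysis of a fluorogenic O-methyl fluorescein ester substrate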", "format": "functional"}, "[18]": {"target": "FAD-linked sulfhydryl oxidase ALR (Homo sapiens, UniProt P55789)", "sequence (P55789 whole entry)": "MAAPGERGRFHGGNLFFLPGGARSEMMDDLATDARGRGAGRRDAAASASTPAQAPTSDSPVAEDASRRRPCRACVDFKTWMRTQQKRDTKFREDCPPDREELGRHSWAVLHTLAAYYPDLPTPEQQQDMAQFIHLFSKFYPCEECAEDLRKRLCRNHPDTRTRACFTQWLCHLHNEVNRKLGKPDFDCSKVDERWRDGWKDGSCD", "test": "inhibitors of human ALR sulfhydryl oxidase, dose response, biochemical, H2O2 detection, luminescence, cherry-pick (AID 493248)"}, "[19]": {"tested_on": "Streptococcus sp. 'group A'", "test": "growth inhibition of control SK(-) GAS strain, dose response, counter-screen for streptokinase expression inhibitor project, luminescence, kanamycin, BacTiterGlo, confirmation (AID 1900)", "format": "functional, organism-based"}, "[20]": {"tested_on": "Streptococcus", "test": "Group A Streptococcus viability loss, dose response, counter-screen for streptokinase expression inhibitor project, luminescence, BacTiterGlo (AID 1915);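 also: potency for reduction of bacterial viability or growth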", "format": "functional, organism-based"}, "[21]": {"tested_on": "HeLa", "test": "HeLa cell cytotoxicity, dose response, cytotoxicity control for MITF activator project, CellTiter-Glo luminescence, cherry-pick samples (AID 540259)", "format": "functional, cell-based", "details": "Homo sapiens"}}, "note": "Several values for one entry are separate records, joined by “and”; a condition that tells them apart may be missing. Identical values can stand only once. Activity calls are given as the source filed them.", "data": [{"smiles": "Fc1ccccc1N=C(S)Nc1cccc2cnccc12", "values": [{"measurement": "AC50", "setting": "[1]", "value": "5.56 µM (active)"}, {"measurement": "IC50", "setting": "[2]", "value": "> 66 µM (inactive)"}, {"measurement": "IC50", "setting": "[3]", "value": "> 66 µM (inactive)"}, {"measurement": "CC50", "setting": "[4]", "value": "> 40 µM (active)"}]}, {"smiles": "Cc1ccc(-c2nc(CCN3C(=O)c4ccccc4C3=O)cs2)cc1", "values": [{"measurement": "IC50", "setting": "[5]", "value": "47.1 µM (active)"}, {"measurement": "IC50", "setting": "[6]", "value": "> 25 µM (active)"}]}, {"smiles": "COCCCNC(=O)C1CCC(=O)N1Cc1ccccc1Cl", "note": "(stereo not drawn)", "values": [{"measurement": "AC50", "setting": "[7]", "value": "inconclusive"}, {"measurement": "AC50", "setting": "[8]", "value": "22.4 µM (inconclusive)"}, {"measurement": "AC50", "setting": "[9]", "value": "25.1 µM (inconclusive)"}]}, {"smiles": "COC(=O)[C@@]1(Cc2ccc(F)cc2)[C@H]2c3cc(C(=O)N(C)C)n(Cc4cc(F)c(F)c(F)c4)c3C[C@H]2CN1C(=O)c1ccccc1", "values": [{"measurement": "AC50", "setting": "[7]", "value": "inconclusive"}]}, {"smiles": "CN(C)CC1CCC/C(=C\\c2ccc(OC(=O)/C=C/c3ccc(Cl)c(Cl)c3)cc2)C1=O", "note": "(stereo not drawn)", "values": [{"measurement": "CC50", "setting": "[10]", "value": "11.5 µM (active)"}, {"measurement": "IC50", "setting": "[6]", "value": "> 25 µM (active)"}]}, {"smiles": "COc1cccc(S(=O)(=O)Nc2ccc3c(c2)C(=NO)c2ccccc2-3)c1", "values": [{"measurement": "Ki", "setting": "[11]", "value": "6.31 nM (active) and 15.8 nM (active)"}, {"measurement": "Ki", "setting": "[12]", "value": "> 2 µM (inactive) and 2 µM (active)"}, {"measurement": "Ki", "setting": "[13]", "value": "3.98 µM (active) and 794 nM (active)"}]}, {"smiles": "C/C(=N\\Nc1ccc(C(=O)O)cc1)c1ccc2c(c1)Nc1ccccc1S2", "values": [{"measurement": "IC50", "setting": "[14]", "value": "11.7 µM (active)"}, {"measurement": "IC50", "setting": "[15]", "value": "36 µM (active)"}, {"measurement": "EC50", "setting": "[16]", "value": "> 150 µM (not active)"}, {"measurement": "IC50", "setting": "[17]", "value": "6.48 µM (active)"}, {"measurement": "AC50", "setting": "[18]", "value": "0.013 µM (active)"}, {"measurement": "EC50", "setting": "[19]", "value": "3.9 µM (active)"}, {"measurement": "EC50", "setting": "[20]", "value": "7.08 µM (active)"}, {"measurement": "AC50", "setting": "[21]", "value": "48.5 µM (active)"}]}]}
